The conditions of series [1]: cited from earlier work. From the text:
In the past decade, several new chemical classes which display potent antifungal activity targeting fungal α, β-tubulin have been developed such as zoxamide, inhibiting β-tubulin in Phytophthora sojae (P. sojae); methyl benzimidazole carbamate, (MBC) inhibiting β-tubulin in Podosphaera xanthii (P. xanthii); and benomyl. One of these microtubule-targeted fungicides is benomyl. In the presence of benomyl, the polymerization of tubulin to microtubules is inhibited resulting in retarded cell division.

In series [2] the target is P. capsici α, β-tubulin. The series is described as follows: ELISA binding affinity of phages displaying tubulin-binding peptides (anti-M13 antibody). Further details: species or system Phytophthora capsici. The conditions noted are these: phage displaying the peptide, 5 μg tubulin per well, OD 450 nm. The procedure: Phage display was conducted with the M13 phage library in an effort to identify specific binding peptides to α, β-tubulin proteins from P. capsici. After five rounds of biopanning toward each target protein, 169 phage clones for α-tubulin and 112 for β-tubulin were selected. […] Testing was done for all the phages with different sequences to estimate their binding affinities for α, β-tubulins of P. capsici.
Phages displaying α, β-tubulin binding peptides were prepared, and their concentrations were determined by measurement of plaque-forming units (pfu) per volume. The binding affinities of phages displaying α, β-tubulin binding peptides were determined by the ELISA method, as described previously. Briefly, α, β-tubulin binding peptides were added in a concentration-dependent manner to a 96-well plate containing α, β-tubulin protein (5 μg per well), as indicated. The wells were then washed 10 times with 1X TBST (50 mM Tris-HCl, pH 7.5, 150 mM NaCl, and 0.1% Tween-20), followed by probing with an anti-M13 antibody (mouse monoclonal antibody, 1:5000 in 1X TBST, 0.2 μg·ml^−1; Amersham Bioscience, Little Chalfont, UK) for 1 h at room temperature. After washing five times with 1 X TBST buffer, anti-mouse IgG-horseradish peroxidase (HRP) conjugate was added, and the mixture was incubated for 1 h, followed by a color-developing reaction with tetramethylbenzidine (TMB) substrate solution ([TMB]/H2O2; Chemicon, Billerica, MA, USA). After 15 min, the reaction was terminated by the addition of 1 M H2SO4, and the optical densities were measured at 450 nm with a Biotrak multiwall plate reader (Amersham Bioscience).

In series [3] the target is P. capsici α, β-tubulin. The experiment in a line: Fluorometric binding affinity of FITC-labeled synthetic peptides. Further details: species or system Phytophthora capsici. The conditions noted are these: FITC-labeled peptide, immobilised tubulin in 96-well plate, 2 h, ex 495 / em 520 nm. From the text:
These peptides were synthesized with FITC-label for detection of the difference in the fluorescence by the absence and presence of target binding using a fluorescence microplate reader (see the Materials and Methods).
(§1) Peptides were synthesized by AnyGen Inc. (Gwangju, Korea). To prevent unintended interaction with other molecules, the peptides used in this study were modified by acetylation at the N-terminus and amidation at the C-terminus. With the addition of a lysine residue, the peptides were labeled with FITC at the C-terminus. This labeling was used for the identification of the target binding property by means of fluorescence detection. The purity of the synthesized peptides was greater than 90%, as assessed by HPLC. The peptides were further characterized to estimate their binding affinity and specificity. Briefly, serial dilutions of FITC-labeled peptides were incubated with α, β-tubulin proteins immobilized on a 96-well plate for 2 h. The binding affinities of the FITC-labeled peptides were determined by a fluorescence microplate reader (Molecular Devices, Sunnyvale, CA, USA) using the soft Max V5 system, with excitation at 495 nm and emission at 520 nm. The specificities of identified peptides for the target proteins were evaluated using the same fluorometric method described above, incorporating homologous H. sapiens α, β-tubulin. BSA protein was used as a negative control.

Series [4] deals with T1, P. capsici α, β-tubulin microtubule polymerization (Phytophthora capsici, UniProt A4ZYP2+A4ZYP4). The series is described as follows: Inhibition of microtubule polymerization by phages (turbidity at 350 nm). The series is classed as biochemical. Particulars: phage 10 nM, 40 min reaction time. The procedure: As a next step, all 15 phages were used to determine whether the phages could inhibit the activity of microtubule polymerization of P. capsici. The concentration of each phage was constant at 10 nM, and the polymerization was measured after 40 min of reaction time.
T1 sequence (A4ZYP4 1-453): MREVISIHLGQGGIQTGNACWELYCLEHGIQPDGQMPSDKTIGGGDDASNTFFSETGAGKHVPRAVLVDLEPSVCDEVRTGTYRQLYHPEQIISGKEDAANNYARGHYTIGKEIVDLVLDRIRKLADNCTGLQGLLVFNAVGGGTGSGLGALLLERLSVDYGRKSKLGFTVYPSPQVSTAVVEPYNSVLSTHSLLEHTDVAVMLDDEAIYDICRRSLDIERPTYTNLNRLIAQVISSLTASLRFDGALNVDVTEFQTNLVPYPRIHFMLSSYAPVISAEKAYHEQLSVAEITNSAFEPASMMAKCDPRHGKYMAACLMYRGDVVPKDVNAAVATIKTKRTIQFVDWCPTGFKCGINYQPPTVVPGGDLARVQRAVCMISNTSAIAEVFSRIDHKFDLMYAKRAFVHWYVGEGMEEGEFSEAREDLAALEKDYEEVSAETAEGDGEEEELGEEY
T1 sequence (A4ZYP2 1-446): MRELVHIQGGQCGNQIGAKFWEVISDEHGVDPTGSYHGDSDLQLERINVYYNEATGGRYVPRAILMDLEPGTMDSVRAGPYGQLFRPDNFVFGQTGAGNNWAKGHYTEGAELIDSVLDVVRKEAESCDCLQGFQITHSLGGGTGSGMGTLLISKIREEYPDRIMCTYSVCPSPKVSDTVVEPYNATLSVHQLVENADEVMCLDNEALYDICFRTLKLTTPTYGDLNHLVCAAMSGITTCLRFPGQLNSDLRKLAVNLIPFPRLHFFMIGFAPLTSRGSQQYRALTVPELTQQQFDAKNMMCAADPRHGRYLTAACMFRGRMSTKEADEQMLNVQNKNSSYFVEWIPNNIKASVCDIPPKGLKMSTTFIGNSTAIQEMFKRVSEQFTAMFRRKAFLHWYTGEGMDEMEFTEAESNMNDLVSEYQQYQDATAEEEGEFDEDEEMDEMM
(§2) The polymerization and inhibition of microtubule assembly were studied using a spectroscopic method. Purified α, β-tubulins were mixed with 120 μL of polymerization buffer (80 mM PIPES (pH 7.4), 1 mM EGTA, 1 mM MgCl2, and 5% v/v glycerol) to a final concentration of 0.5 mg/mL total tubulin in 300 μL final reaction mixture. The polymerization assay was initiated with the addition of 2.5 mM GTP, and the reaction was continued until it reached the saturation point for 40 min. The contents were mixed, and the resulting turbidity due to microtubule formation was measured at 350 nm using an Optizen 2120 UV spectrophotometer. […] Furthermore, the polymerization and inhibition of microtubule formation were also confirmed through sodium dodecyl sulfate–polyacrylamide gel electrophoresis (SDS-PAGE), Western blot, and transmission electron microscopy (TEM). For the TEM analysis, samples were prepared according to the protocol reported by Vulevic et al.. Briefly, 30 μL of the saturated product of the polymerization reaction was immediately diluted with 10 μL of 0.4% glutaraldehyde, and the mixture was incubated for 3 min at room temperature. Then, 10 μL of the solution was applied to a 200 mesh, copper/formvar-coated grid (EMS) for 1 min, which was sequentially washed using two drops of dH2O and stained for 2 min with a drop of 2% uranyl acetate. Excess stain was removed by blotting with filter paper. Samples were air-dried and later viewed under a TEM.

Series [5] addresses H. sapiens α, β-tubulin. The series is described as follows: Fluorometric binding affinity of FITC-labeled synthetic peptides (specificity). Particulars: FITC-labeled peptide, immobilised tubulin in 96-well plate, 2 h, ex 495 / em 520 nm.
Excerpt: Investigation of the binding affinity for α, β-tubulins of H. sapiens to the synthesized peptides is necessary because peptide binding to H. sapiens tubulins could trigger severe toxicity in humans. First, α, β-tubulins of H. sapiens were individually overexpressed and purified (Figure 1). […] In addition, bovine serum albumin (BSA) was used as another control to confirm the specificity of the synthesized peptides. No significant binding fluorescence intensities for BSA were detected.
as §1

Series [6] has as its target T1, P. capsici α, β-tubulin microtubule polymerization. The series is described as follows: biochemical. The procedure: The IC50 values of the four synthetic peptides were determined by fitting the relative inhibition data via the below Equation (1), where V0 is the reaction rate without inhibitor, Vf is the rate at saturation inhibition, and [I] is the inhibitor concentration. (1) V=(V0−Vf)×IC50/IC50+[I]+Vf
as §2

Series [7] has as its system H. sapiens α, β-tubulin microtubule polymerization. The experiment in a line: Microtubule polymerization inhibition assay with synthetic peptides (turbidity at 350 nm). The series is classed as biochemical. Particulars: 0.5 mg/mL total tubulin, 2.5 mM GTP, 40 min. An excerpt: (1) V=(V0−Vf)×IC50/IC50+[I]+Vf
Excess stain was removed by blotting with filter paper.

The subject of series [8] is P. capsici microtubules. The series is described as follows: TEM analysis of polymerized microtubules. The series is classed as biochemical, Phytophthora capsici. Particulars: polymerized for 40 min. On the procedure: as §2, with “Excess stain was removed by blotting with filter paper. Samples were air-dried and later viewed under a TEM.” left out

Results on 16 compounds are retold here after PMC6600545, “Novel Peptide-Based Inhibitors for Microtubule Polymerization in Phytophthora capsici” (International Journal of Molecular Sciences, 2019).

“And” between values parts separate entries of the source, which are not always exact repeats. Identical values can stand only once. Peptide text beside a SMILES is read from it. * marks the point of attachment. FITC = O=C1OC2(c3ccc(O)cc3Oc3cc(O)ccc32)c2ccc(NC(=S)*)cc21

As for `CCCCNC(=O)n1c(NC(=O)OC)nc2ccccc21` [benomyl], in series [1], the solubility in water entry is “low solubility”.

Regarding `CC[C@H](C)[C@H](NC(C)=O)C(=O)N[C@H](C(=O)N[C@@H](CCSC)C(=O)N[C@@H](CO)C(=O)N[C@H](C(=O)N1CCC[C@H]1C(=O)N[C@@H](C)C(=O)N[C@@H](Cc1c[nH]cn1)C(=O)N[C@@H](CC(N)=O)C(=O)N[C@@H](C)C(=O)N[C@@H](CCCCN)C(=O)N[C@@H](CCC(=O)O)C(=O)N[C@@H](CCCCNC(=S)Nc1ccc2c(c1)C(=O)OC21c2ccc(O)cc2Oc2cc(O)ccc21)C(N)=O)C(C)C)[C@@H](C)O` [α_P1] (Ac-ITMSVPAHNAKEK(FITC)-NH2), the Kd was determined as 0.0342 ± 0.00211 nM in series [2], 69.5 ± 6.4 nM in series [3] and 134 ± 48.8 nM in series [5]. The “percent inhibition of microtubule polymerization” value (“percent inhibition” below) in series [4] stood at 28%. In series [6], this compound displayed a 50% inhibitory concentration (IC50) of 2690 nM.

Consider `CC(=O)N[C@H](C(=O)N[C@@H](CC(N)=O)C(=O)N[C@H](C(=O)N[C@@H](CO)C(=O)N[C@@H](Cc1c[nH]c2ccccc12)C(=O)N[C@@H](CC(=O)O)C(=O)N1CCC[C@H]1C(=O)N[C@@H](CCC(N)=O)C(=O)N[C@@H](Cc1ccc(O)cc1)C(=O)N[C@@H](CC(N)=O)C(=O)N1CCC[C@H]1C(=O)N[C@@H](CC(=O)O)C(=O)N[C@@H](CCCCNC(=S)Nc1ccc2c(c1)C(=O)OC21c2ccc(O)cc2Oc2cc(O)ccc21)C(N)=O)[C@@H](C)O)[C@@H](C)O` [α_P2] (Ac-TNTSWDPQYNPDK(FITC)-NH2), for which the IC50 in series [7] stood at 2430 nM; in series [6] it was 802 nM. In addition, the equilibrium dissociation constant (Kd) is 0.0801 ± 0.00113 nM in series [2], 93.9 ± 11.2 nM in series [3] and 256 ± 31.1 nM in series [5]. For the same compound, in series [4], the “percent inhibition” value was found to be 54%. Besides, the “microtubule morphology by TEM” value in series [8] (1 μM peptide) is on record as “Amorphous morphology of microtubules occurred predominantly”. Moreover, the “microtubule formation by TEM” value in series [8] (Ten micromolar peptide) is listed as “completely inhibited the formation of microtubules”.

Regarding `CC(=O)N[C@@H](CC(N)=O)C(=O)N[C@@H](Cc1c[nH]cn1)C(=O)N[C@@H](Cc1ccccc1)C(=O)N[C@H](C(=O)N1CCC[C@H]1C(=O)N[C@H](C(=O)N[C@@H](CO)C(=O)N[C@@H](CC(N)=O)C(=O)N[C@@H](CCCNC(=N)N)C(=O)N[C@@H](Cc1ccccc1)C(=O)N[C@@H](CC(N)=O)C(=O)N[C@@H](C)C(=O)N[C@@H](CCCCNC(=S)Nc1ccc2c(c1)C(=O)OC21c2ccc(O)cc2Oc2cc(O)ccc21)C(N)=O)[C@@H](C)O)C(C)C` [α_P3] (Ac-NHFVPTSNRFNAK(FITC)-NH2), the IC50 in series [7] amounted to 4110 nM; in series [6], 1240 nM. For the same compound, the Kd in series [2] was 0.12 ± 0.00123 nM; in series [3] it was 79.2 ± 6.8 nM; in series [5] it was 162 ± 8.1 nM. In series [4], the “percent inhibition” value was 32%.

For `CC(=O)N[C@H](C(=O)N[C@@H](CC(N)=O)C(=O)N1CCC[C@H]1C(=O)N[C@@H](CCC(N)=O)C(=O)N[C@@H](C)C(=O)N[C@@H](CCCNC(=N)N)C(=O)N[C@@H](Cc1c[nH]c2ccccc12)C(=O)N[C@@H](Cc1c[nH]cn1)C(=O)N[C@@H](CCC(=O)O)C(=O)N[C@@H](Cc1ccc(O)cc1)C(=O)N[C@@H](CC(N)=O)C(=O)N[C@@H](Cc1ccccc1)C(=O)N[C@@H](CCCCNC(=S)Nc1ccc2c(c1)C(=O)OC21c2ccc(O)cc2Oc2cc(O)ccc21)C(N)=O)[C@@H](C)O` [β_P1] (Ac-TNPQARWHEYNFK(FITC)-NH2), the Kd turned out to be 0.0419 ± 0.00105 nM in series [2], 49.7 ± 2.9 nM in series [3] and 455 ± 50.7 nM in series [5]. Also, the “percent inhibition” value in series [4] came to 21%. Moreover, the half-inhibitory concentration (IC50) in series [6] came out at 6910 nM.

In turn, “IGNSWPLTSHSW [α_P10, M13 phage clone displaying 12-mer […], selected against P. capsici α-tubulin]” yielded a Kd in series [2] of 0.144 ± 0.0011 nM.

On to “KVYAINSWTNYY [α_P13, M13 phage clone displaying 12-mer […], selected against P. capsici α-tubulin]”, for which the Kd in series [2] stood at 1.2 ± 0.0902 nM.

“LMNPATMKTSSG [α_P7, M13 phage clone displaying 12-mer […], selected against P. capsici α-tubulin]”: the Kd in series [2] stood at 0.36 ± 0.00187 nM.

For the compound “MVHSKASMWPGK [α_P12, M13 phage clone displaying 12-mer […], selected against P. capsici α-tubulin]”, in series [2], binding was put at a Kd of 0.69 ± 0.00227 nM.

On to NAITLLSPPLHK [α_P5], for which the affinity in series [2], expressed as Kd, was 0.0571 ± 0.00177 nM. Besides, the “percent inhibition” value in series [4] was 5% and 4%.

NFTINGKTHRLW [α_P4] came in with a dissociation constant Kd in series [2] of 0.298 ± 0.00145 nM. Moreover, the “percent inhibition” value in series [4] is given as 19%.

Take NPIGDNYSGTGL [β_P2]: the Kd in series [2] worked out at 0.0371 ± 0.00141 nM. For the same compound, the “percent inhibition” value in series [4] is 2%.

Regarding “SNMKPSMEYSSR [α_P9, M13 phage clone displaying 12-mer […], selected against P. capsici α-tubulin]”, the Kd in series [2] was found to be 0.273 ± 0.00179 nM.

For “SSHNHDSYHGTK [α_P6, M13 phage clone displaying 12-mer […], selected against P. capsici α-tubulin]”, the Kd in series [2] came out at 0.476 ± 0.00273 nM. This Kd lies about 1.7-fold higher than the previous one.

“SYNTFMYERASK [α_P11, M13 phage clone displaying 12-mer […], selected against P. capsici α-tubulin]” gave an equilibrium dissociation constant (Kd) in series [2] of 0.562 ± 0.00169 nM. This Kd and that of the compound before are within 1.5-fold of each other.

Take “TNTSWDPQYNPD [α_P8, M13 phage clone displaying 12-mer […]; (so in the source), selected against P. capsici α-tubulin]”: binding in series [2] was characterised by a dissociation constant (Kd) of 0.0476 ± 0.00251 nM. In series [4], the “percent inhibition” value is given as 4%.
